Molecular target: T1, Human SST5 somatostatin receptor (Homo sapiens, UniProt P35346)
T1 construct: expressed in transfected cells; host or cells: HEK-293 EBNA cells (membranes)
Assay: Filter plate radio-ligand binding assay for SST5 receptor ([125I]SST-14 displacement)
Conditions: for % SST5 radio-ligand binding displaced at conc 0.001: conc 0.001 μM; for % SST5 radio-ligand binding displaced at conc 0.10: conc 0.10 μM; for % SST5 radio-ligand binding displaced at conc 0.5: conc 0.5 μM; for % SST5 radio-ligand binding displaced at conc 1.0: conc 1.0 μM; for % SST5 radio-ligand binding displaced at conc 10: conc 10 μM; for % SST5 radio-ligand binding displaced at conc 0.25: conc 0.25 μM

[1] = compound conc 50 μM, 2P library
[2] = compound conc 250 μM, 2P library
[3] = compound conc 500 μM, 2P library

T1 sequence (P35346 whole entry): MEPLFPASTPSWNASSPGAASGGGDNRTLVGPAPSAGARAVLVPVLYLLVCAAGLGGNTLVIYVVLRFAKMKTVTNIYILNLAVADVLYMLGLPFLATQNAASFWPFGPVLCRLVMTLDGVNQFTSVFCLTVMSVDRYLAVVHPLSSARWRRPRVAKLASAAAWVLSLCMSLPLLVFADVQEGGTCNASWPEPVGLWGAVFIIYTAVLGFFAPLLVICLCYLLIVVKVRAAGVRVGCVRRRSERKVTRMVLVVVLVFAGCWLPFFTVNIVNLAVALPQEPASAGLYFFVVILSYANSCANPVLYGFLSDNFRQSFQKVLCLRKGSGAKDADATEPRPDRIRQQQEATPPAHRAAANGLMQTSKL

## COCC1OC(OCc2ccc(Cl)cc2)C(NC(=O)CN)C(OCc2ccc(Cl)cc2)C1O (mixture of isomers) [Compound 161]
3P library
  % SST5 radio-ligand binding displaced at conc 0.001: − (% SST5 radio-ligand binding displaced at cone (μM) −<40%)
  % SST5 radio-ligand binding displaced at conc 0.10: − (% SST5 radio-ligand binding displaced at cone (μM) −<40%)
  % SST5 radio-ligand binding displaced at conc 0.5: − (% SST5 radio-ligand binding displaced at cone (μM) −<40%)
  % SST5 radio-ligand binding displaced at conc 1.0: − (% SST5 radio-ligand binding displaced at cone (μM) −<40%)
  % SST5 radio-ligand binding displaced at conc 10: ++ (% SST5 radio-ligand binding displaced at conc (μM) >60%)

## COC1C(O)C(COCc2ccc(Cl)cc2)OC(SC)C1NC(=O)CN (stereo not shown) [Compound 29]
[1]
  % SST5 radio-ligand binding displaced at conc 50: − (% SST5 radio-ligand binding displaced at cone (μM) −<40%)
[2]
  % SST5 radio-ligand binding displaced at conc 250: − (% SST5 radio-ligand binding displaced at cone (μM) −<40%)
[3]
  % SST5 radio-ligand binding displaced at conc 500: − (% SST5 radio-ligand binding displaced at cone (μM) −<40%)

## COC[C@H]1O[C@H](OCc2ccc3ccccc3c2)[C@H](NC(=O)CCN)[C@@H](OCc2nccc3ccccc23)[C@@H]1O [Compound 112]
3P library
  % SST5 radio-ligand binding displaced at conc 0.25: + (% SST5 radio-ligand binding displaced at cone (μM) 60>+>40%)
  % SST5 radio-ligand binding displaced at conc 1.0: ++ (% SST5 radio-ligand binding displaced at conc (μM) >60%)

## COC[C@H]1O[C@@H](OCc2ccc(Cl)cc2)[C@H](NC(=O)CN)[C@H](OC)[C@@H]1O [Compound 159]
Conc 50 μM, 3P library
  % SST5 radio-ligand binding displaced at conc 50: − (% SST5 radio-ligand binding displaced at cone (μM) −<40%)
Conc 250 μM, 3P library
  % SST5 radio-ligand binding displaced at conc 250: − (% SST5 radio-ligand binding displaced at cone (μM) −<40%)
Conc 500 μM, 3P library
  % SST5 radio-ligand binding displaced at conc 500: − (% SST5 radio-ligand binding displaced at cone (μM) −<40%)

## COCC1OC(OCc2ccc3ccccc3c2)C(NC(=O)C2CCCCC2N)C(OCc2ccc3ccccc3c2)C1O (stereo not shown) [Compound 105]
3P library
  % SST5 radio-ligand binding displaced at conc 0.25: − (% SST5 radio-ligand binding displaced at cone (μM) −<40%)
  % SST5 radio-ligand binding displaced at conc 1.0: − (% SST5 radio-ligand binding displaced at cone (μM) −<40%)

## COC[C@H]1O[C@@H](OCc2ccc3ccccc3c2)[C@H](NC(=O)CN)[C@@H](OC)[C@@H]1O [Compound 14]
[1]
  % SST5 radio-ligand binding displaced at conc 50: − (% SST5 radio-ligand binding displaced at cone (μM) −<40%)
[2]
  % SST5 radio-ligand binding displaced at conc 250: − (% SST5 radio-ligand binding displaced at cone (μM) −<40%)
[3]
  % SST5 radio-ligand binding displaced at conc 500: − (% SST5 radio-ligand binding displaced at cone (μM) −<40%)

## COC[C@H]1O[C@@H](OCc2ccc(Cl)cc2)[C@H](NC(=O)CCCN)[C@H](OC)[C@@H]1O [Compound 44]
[1]
  % SST5 radio-ligand binding displaced at conc 50: − (% SST5 radio-ligand binding displaced at cone (μM) −<40%)
[2]
  % SST5 radio-ligand binding displaced at conc 250: − (% SST5 radio-ligand binding displaced at cone (μM) −<40%)
[3]
  % SST5 radio-ligand binding displaced at conc 500: ++ (% SST5 radio-ligand binding displaced at conc (μM) >60%)

## COCC1OC(OCc2ccc3ccccc3c2)C(NC(=O)CCCN)C(OCc2ccc(-c3ccccc3)cc2)C1O (mixture of isomers) [Compound 131]
3P library
  % SST5 radio-ligand binding displaced at conc 10: ++ (% SST5 radio-ligand binding displaced at conc (μM) >60%)

## COC[C@H]1O[C@H](OCc2ccc3ccccc3c2)[C@H](NC(=O)CCCN)[C@@H](OCc2ccc(Cl)c(Cl)c2)[C@@H]1O [Compound 150]
3P library
  % SST5 radio-ligand binding displaced at conc 0.25: ++ (% SST5 radio-ligand binding displaced at conc (μM) >60%)
  % SST5 radio-ligand binding displaced at conc 1.0: ++ (% SST5 radio-ligand binding displaced at conc (μM) >60%)

## COC[C@H]1O[C@H](OCc2ccc3ccccc3c2)[C@H](NC(=O)CCN)[C@@H](OCc2ccccc2Cl)[C@@H]1O [Compound 109]
3P library
  % SST5 radio-ligand binding displaced at conc 0.25: − (% SST5 radio-ligand binding displaced at cone (μM) −<40%)
  % SST5 radio-ligand binding displaced at conc 1.0: ++ (% SST5 radio-ligand binding displaced at conc (μM) >60%)

## NCCC(=O)NC1C(OCc2ccc3ccccc3c2)OC(COCc2ccc3ccccc3c2)C(O)C1OCc1ccc2ccccc2c1 (stereo not shown) [Compound 80]
3P library
  % SST5 radio-ligand binding displaced at conc 0.25: − (% SST5 radio-ligand binding displaced at cone (μM) −<40%)
  % SST5 radio-ligand binding displaced at conc 1.0: ++ (% SST5 radio-ligand binding displaced at conc (μM) >60%)

## COC[C@H]1O[C@H](OCc2ccc3ccccc3c2)[C@H](NC(=O)CCN)[C@@H](OCc2ccc3ccccc3c2)[C@@H]1O [Compound 98]
3P library
  % SST5 radio-ligand binding displaced at conc 0.25: + (% SST5 radio-ligand binding displaced at cone (μM) 60>+>40%)
  % SST5 radio-ligand binding displaced at conc 1.0: ++ (% SST5 radio-ligand binding displaced at conc (μM) >60%)

## NCCC(=O)NC1C(OCc2ccc3ccccc3c2)OC(COCc2ccc3ccccc3c2)C(O)C1OCc1ccc(Cl)cc1 (mixture of isomers) [Compound 70]
3P library
  % SST5 radio-ligand binding displaced at conc 0.25: − (% SST5 radio-ligand binding displaced at cone (μM) −<40%)
  % SST5 radio-ligand binding displaced at conc 1.0: + (% SST5 radio-ligand binding displaced at cone (μM) 60>+>40%)

## COCC1OC(OCc2ccc3ccccc3c2)C(NC(=O)CCCN)C(OCc2ccccc2)C1O (mixture of isomers) [Compound 120]
3P library
  % SST5 radio-ligand binding displaced at conc 0.5: + (% SST5 radio-ligand binding displaced at cone (μM) 60>+>40%)
  % SST5 radio-ligand binding displaced at conc 10: ++ (% SST5 radio-ligand binding displaced at conc (μM) >60%)

## COC[C@H]1O[C@H](OCc2ccc3ccccc3c2)[C@H](NC(=O)CCN)[C@H](OC)[C@@H]1O [Compound 63]
Conc 50 μM, 3P library
  % SST5 radio-ligand binding displaced at conc 50: + (% SST5 radio-ligand binding displaced at cone (μM) 60>+>40%)
Conc 250 μM, 3P library
  % SST5 radio-ligand binding displaced at conc 250: ++ (% SST5 radio-ligand binding displaced at conc (μM) >60%)
Conc 500 μM, 3P library
  % SST5 radio-ligand binding displaced at conc 500: ++ (% SST5 radio-ligand binding displaced at conc (μM) >60%)

## COCC1OC(SC)C(NC(=O)CN)C(OCc2ccc(Cl)cc2)C1O (stereo not shown) [Compound 31]
[1]
  % SST5 radio-ligand binding displaced at conc 50: − (% SST5 radio-ligand binding displaced at cone (μM) −<40%)
[2]
  % SST5 radio-ligand binding displaced at conc 250: − (% SST5 radio-ligand binding displaced at cone (μM) −<40%)
[3]
  % SST5 radio-ligand binding displaced at conc 500: + (% SST5 radio-ligand binding displaced at cone (μM) 60>+>40%)

## COC[C@H]1O[C@@H](OCc2ccc3ccccc3c2)[C@H](NC(=O)CCN)[C@H](OC)[C@@H]1O [Compound 62]
Conc 50 μM, 3P library
  % SST5 radio-ligand binding displaced at conc 50: − (% SST5 radio-ligand binding displaced at cone (μM) −<40%)
Conc 250 μM, 3P library
  % SST5 radio-ligand binding displaced at conc 250: ++ (% SST5 radio-ligand binding displaced at conc (μM) >60%)
Conc 500 μM, 3P library
  % SST5 radio-ligand binding displaced at conc 500: ++ (% SST5 radio-ligand binding displaced at conc (μM) >60%)

## COC[C@H]1O[C@H](OCc2ccc3ccccc3c2)[C@H](NC(=O)CCCN)[C@@H](OCc2ccc(Cl)cc2Cl)[C@@H]1O [Compound 152]
3P library
  % SST5 radio-ligand binding displaced at conc 0.25: + (% SST5 radio-ligand binding displaced at cone (μM) 60>+>40%)
  % SST5 radio-ligand binding displaced at conc 1.0: ++ (% SST5 radio-ligand binding displaced at conc (μM) >60%)

## COCC1OC(OCc2ccc3ccccc3c2)C(NC(=O)CCCN)C(OCc2ccc3ccccc3c2)C1O (mixture of isomers) [Compound 129]
3P library
  % SST5 radio-ligand binding displaced at conc 0.001: − (% SST5 radio-ligand binding displaced at cone (μM) −<40%)
  % SST5 radio-ligand binding displaced at conc 0.10: + (% SST5 radio-ligand binding displaced at cone (μM) 60>+>40%)
  % SST5 radio-ligand binding displaced at conc 0.25: − (% SST5 radio-ligand binding displaced at cone (μM) −<40%)
  % SST5 radio-ligand binding displaced at conc 1.0: ++ (% SST5 radio-ligand binding displaced at conc (μM) >60%)
  % SST5 radio-ligand binding displaced at conc 10: ++ (% SST5 radio-ligand binding displaced at conc (μM) >60%)

## COC[C@H]1OC(OCc2ccc3ccccc3c2)[C@H](NC(=O)CCN)[C@@H](OCc2ccc(Cl)cc2)[C@@H]1O (single isomer, unassigned) [Compound 90]
3P library
  % SST5 radio-ligand binding displaced at conc 0.25: + (% SST5 radio-ligand binding displaced at cone (μM) 60>+>40%)
  % SST5 radio-ligand binding displaced at conc 1.0: ++ (% SST5 radio-ligand binding displaced at conc (μM) >60%)

## COC[C@H]1O[C@@H](SC)[C@H](NC(=O)CCCN)[C@H](OCc2ccc3ccccc3c2)[C@@H]1O [Compound 58]
[1]
  % SST5 radio-ligand binding displaced at conc 50: − (% SST5 radio-ligand binding displaced at cone (μM) −<40%)
[2]
  % SST5 radio-ligand binding displaced at conc 250: − (% SST5 radio-ligand binding displaced at cone (μM) −<40%)
[3]
  % SST5 radio-ligand binding displaced at conc 500: − (% SST5 radio-ligand binding displaced at cone (μM) −<40%)

## COC[C@H]1OC(OCc2ccc3ccccc3c2)[C@H](NC(=O)CCN)[C@@H](OCc2ccc(-c3ccccc3)cc2)[C@@H]1O (single isomer, unassigned) [Compound 91]
3P library
  % SST5 radio-ligand binding displaced at conc 0.25: − (% SST5 radio-ligand binding displaced at cone (μM) −<40%)
  % SST5 radio-ligand binding displaced at conc 1.0: − (% SST5 radio-ligand binding displaced at cone (μM) −<40%)

## COC[C@H]1O[C@H](OCc2ccc3ccccc3c2)[C@H](NC(=O)CCCN)[C@@H](OCc2ccccc2Cl)[C@@H]1O [Compound 146]
3P library
  % SST5 radio-ligand binding displaced at conc 0.25: − (% SST5 radio-ligand binding displaced at cone (μM) −<40%)
  % SST5 radio-ligand binding displaced at conc 1.0: ++ (% SST5 radio-ligand binding displaced at conc (μM) >60%)

## NCCC(=O)NC1C(OCc2ccc3ccccc3c2)OC(COCc2ccc(Cl)cc2)C(O)C1OCc1ccc2ccccc2c1 (mixture of isomers) [Compound 75]
3P library
  % SST5 radio-ligand binding displaced at conc 0.25: − (% SST5 radio-ligand binding displaced at cone (μM) −<40%)
  % SST5 radio-ligand binding displaced at conc 1.0: ++ (% SST5 radio-ligand binding displaced at conc (μM) >60%)
